Reference: patent publication US20030077571A1, “Experimental model and method for evaluation of therapeutic agents against asthenopia” (priority 2001, published 2003)
“And” between values parts separate entries of the source, which are not always exact repeats. Equal values may be shown once. Read-outs that look alike come from different tables or passages of the source.

Tested on: ciliary muscle
Assay: Atropine inhibition of acetylcholine-induced ciliary muscle contraction (Magnus tube)
Format: cell-based, rabbit
Conditions: for inhibition at 1 µM: Oryctolagus cuniculus, atropine 10^-6 mol/L vs control; for Tension of Contraction (g), Tables 2 and 6 / Tension of Contraction (g), Tables 4 and 8 / Tension of Contraction (g), Tables 3 and 7: individual enucleated organs 1-2
Method: The ciliary muscle obtained in EXAMPLE 1 was suspended in a Magnus tube filled with Krebs-Henseleit solution bubbled through with a mixed gas of 5% carbon dioxide and 95% oxygen. Krebs-Henseleit solution was prepared as follows. A-solution, B-solution, C-solution, water and D-solution were mixed at a ratio of 1:1:1:6:1 in the following order. First A-solution, B-solution and C-solution were mixed in the above ratio followed by the addition of distilled water. After rigorous mixing, D-solution was added. The solution thus prepared was shielded from light and used after heating at 37 degrees C.
The sample in the Magnus tube was suspended at a loading weight of 0.4 g using a tension transducer (Isometric Transducer, FD Pick-up TB-611 T type, made by Nihon Kohden Corporation, Tokyo, Japan). After equilibration for 30 minutes, acetylcholine (made by SIGMA, St. Louis, Mo.) at a final concentration of 10-4 mol/L was added for the first stimulation. After tension reached a plateau value, the sample was washed with a buffer until the tension returned to the baseline. This procedure was repeated nine times.
The tension of the sample upon each stimulation was recorded by the data collection software (VISUAL DESIGNER ver. 2.3, made by INTELLIGENT INSTRUMENTATION, Tucson, Ariz.) via the tension transducer, an input box (JD-112S type, made by Nihon Kohden Corporation), an amplifier for pressure strain (AP-621G type, made by Nihon Kohden Corporation) and an A.D. conversion board (PCI-20428W, made by INTELLIGENT INSTRUMENTATION).
The net tension was calculated by subtracting the baseline tension from the tension observed after stimulation, and this was defined as the contraction rate. The first net tension, i.e., tension at the first stimulation—baseline tension, was set as a contraction rate of 100%.
In addition, the sample in the Magnus tube was treated with atropine at a final concentration of 10-6 mol/L and subjected to acetylcholine stimulation as described above, in order to confirm whether the tension of the sample was in fact due to stimulation by acetylcholine.

[1] = atropine 10^-6 mol/L, baseline tension data set
[2] = atropine 10^-6 mol/L, net tension data set
[3] = atropine 10^-6 mol/L, tension after acetylcholine stimulation data set

CN1[C@@H]2CC[C@H]1C[C@@H](OC(=O)C(CO)c1ccccc1)C2 (stereo partly shown) [atropine]
inhibition at 1 µM (baseline tension data set, read-out: Inhibition Value (%), Table 6): 84.6% | inhibition at 1 µM (net tension data set, read-out: Inhibition Value (%), Table 8): 75.6% | inhibition at 1 µM (tension after acetylcholine stimulation data set, read-out: Inhibition Value (%), Table 7): 82% | contraction of the ciliary muscle elicited by acetylcholine (atropine 10^-6 mol/L): inhibited | Tension of Contraction, Average ± standard deviation, Table 6 [1]: 0.0245 ± 0.0024 g | Tension of Contraction (g), Tables 2 and 6 [1]: 0.0228 g and 0.0262 g | Tension of Contraction (g), Tables 2 and 6 (atropine 10^-6 mol/L, baseline tension data set, listed as Artopine): 0.0228 g and 0.0262 g | Tension of Contraction, Average ± standard deviation, Table 8 [2]: 0.0156 ± 0.0076 g | Tension of Contraction (g), Tables 4 and 8 [2]: 0.0102 g and 0.0210 g | Tension of Contraction (g), Tables 4 and 8 (atropine 10^-6 mol/L, net tension data set, listed as Artopine): 0.0102 g and 0.0210 g | Tension of Contraction, Average ± standard deviation, Table 7 [3]: 0.0401 ± 0.0100 g | Tension of Contraction (g), Tables 3 and 7 [3]: 0.0330 g and 0.0472 g | Tension of Contraction (g), Tables 3 and 7 (atropine 10^-6 mol/L, tension after acetylcholine stimulation data set, listed as Artopine): 0.0330 g and 0.0472 g
